# Measured values from patent US8895236B2, “Composition for cryopreservation comprising nicotinamide, glycerol and red blood cells” (priority 1998, dated 2014).
# What was measured:
# [1] = tested on: red blood cells; test: Thaw, overall and final hemolysis, glycerol based cryoprotectant with additives (Example 2); assay type: cell-based, human; settings: additives in 20% glycerol; for Hemolysis (%) Overall: after glycerol removal by serial dilution with saline; for Hemolysis (%) Final (residual free hemoglobin): final residual free hemoglobin after wash; for Hemolysis (%) Thaw: frozen −80° C. 2-7 days, thawed 37° C. 10 minutes
# Experimental: Fifty ml of packed red blood cells were added to a PVC freezing bag. Isotonic saline or preservative solution containing the additional biochemical reagents of interest was mixed with the red blood cells. The samples were treated as follows prior to freezing at −80° C.: • 1. 40% Glycerol • 2. 20% Glycerol • 3. Nicotinamide • 4.
# A volume of Glycerolyte 57 (Fenwall) was added slowly until the final concentration of glycerol was achieved. The total volume of all additions was 50 ml, making the final volume of the red blood cell unit 100 ml. The PVC bags were frozen at −80° C. for 2-7 days and thawed by submersion in a 37° C. water bath for 10 minutes. The level of thaw hemolysis was determined as the ratio of free hemoglobin to total hemoglobin. Additionally, the glycerol was removed from the thawed red blood cell units by serial dilution with saline similar to blood bank protocols. The overall hemolysis and the final residual free hemoglobin levels were also determined.
# [2] = tested on: red blood cells; test: Thaw hemolysis of red blood cells frozen at −80° C. with reduced glycerol (Example 1); assay type: cell-based, human; settings: frozen at −80° C. 2-7 days, thawed 37° C. water bath 10 minutes; ratio of free to total hemoglobin
# Experimental: A significant percentage of the hemolytic damage is shown to be reversed by the addition of a preservative solution containing adenine, glutamine, sodium chloride, mannitol, and dextrose, with the essential additive being dextrose, and final concentrations of 5 mM pentoxifylline and 25 μg/ml flurbiprofen in DMSO as a carrier.
# Specifically, 50 ml of packed red blood cells was added to a PVC freezing bag with a maximum volume of 150 ml. Isotonic saline or preservative solution containing the additional biochemical reagents pentoxifylline and flurbiprofen was mixed with the red blood cells. A volume of Glycerolyte 57 (Fenwall) was added slowly until the final concentration of glycerol was achieved. The total volume of all additions was 50 ml, making the final […] of the red blood cell unit 100 ml. […] The levels of thaw hemolysis are shown below in TABLE 1.
# [3] = tested on: red blood cells; test: Thaw and overall hemolysis, 10% glycerol reduced cryopreservation model (Example 3); assay type: cell-based, human; settings: 10% (w/v) glycerol base
# Experimental: The model used is a reduced glycerol cryopreservation system. 10% (w/v) glycerol is added to the unit prior to freezing at −80° C.
# A single unit of packed red blood cells in ADSOL was obtained using standard blood banking protocols. […] From this red blood cell unit 50 ml of red cells was placed into each of 3 PVC freezing bags having a maximum volume of 150 ml. An equal volume (50 ml) was added to each of the bags composed of the above preservation solution and the experimental conditions. The final composition of the first bag was 10% (w/v) glycerol. […] The overall hemolysis was also determined.
# [4] = tested on: red blood cells; test: Thaw and overall hemolysis, glycerol-based cryoprotectant with biochemical stabilization (Example 4); assay type: cell-based, human; settings: for % Hemolysis Thaw: frozen −80° C., thawed 37° C. water bath 10 minutes; for % Hemolysis Overall: overall hemolysis following the wash with 12%, 1.6% and 0.9% saline
# Experimental: An aliquot of blood was transferred to a PVC storage bag, to which any experimental agents were added. Glycerol was then added until the desired final glycerol was achieved. This unit was frozen at −80° C., stored and thawed in a 37° C. water bath for 10 minutes. […] The values indicate the percent hemolysis in the thawed sample, the overall amount of hemolysis following the wash and the is percent of residual free hemoglobin in the final sample. Hemolysis is calculated as the ratio of free hemoglobin to the total hemoglobin content in the sample.
# [5] = tested on: red blood cells
# Excerpt: Additionally, the glycerol was removed from the thawed red blood cell units by serial dilution with saline similar to blood bank protocols.
# [6] = tested on: red blood cells; settings: frozen storage at −80° C., glycerol washed out prior to transfusion; typical level; cited from earlier work
# [7] = listed as 20% Glycerol with Control
SMILES,Hemolysis (%) Overall [1] [%],Hemolysis (%) Final (residual free hemoglobin) [1] [%],Hemolysis (%) Thaw [1] [%],% Hemolysis (level of thaw hemolysis) [2] [%],also measured
NC(=O)c1cccnc1 [Nicotinamide],22.93,0.43,8.13,–,–
"OCC(O)CO [30% Glycerol, glycerol]",–,–,–,3.53,–
"OCC(O)CO [10% Glycerol, glycerol]",–,–,–,–,"% Hemolysis Overall ([3]; after glycerol removal by serial dilution with saline): 93.62 ± 1.28%; % Hemolysis Thaw ([3]; frozen −80° C. 2-7 days, thawed 37° C. 10 minutes): 61.71 ± 1.26%"
"OCC(O)CO [20% Glycerol, glycerol]",41.48,1.09,9.39,35.29,"% Hemolysis Thaw [4, 7]: 37.9%; % Hemolysis Overall [4, 7]: 52.0%"
"C[S+](C)[O-] [DMSO, dimethyl sulfoxide]",–,–,–,–,% Hemolysis [5]: 23.17 ± 0.58%
"OCC(O)CO [40% Glycerol, glycerol]",14.1,0.45,2.01,1.91,% Hemolysis Thaw [4]: 1.9%; % Hemolysis Overall [4]: 6.1%; hemolysis during the wash procedure [6]: 10-15%
